Columns and labels:
OVCAR-8 = experiment: Growth inhibition, OVCAR-8; type: cell-based; settings: Homo sapiens, OVCAR-8, read-out: IC50 (nM), OVCAR-8
[1] = test system: A375 human melanoma xenograft; experiment: A375 human melanoma xenograft in SHO nude mice; type: in vivo; settings: 25 mg/kg; after 31 days of treatment
Method: FIG. 19 depicts in vivo study of ABI compounds. […] C57BL/6 mice bearing B16-F1 melanoma allograft (n=5 per group). Each mouse received 0.5×10^6 cells by s.c. injection into the flank. 30 μL i.p. daily treatments were started when tumor size reached ˜100 mm^3. […] SHO nude mice bearing an A375 human melanoma xenograft (n=5 per group). Each mouse received 2.5×10^6 cells by s.c. injection into the flank. 30 μL i.p. daily treatments were started when the tumor size reached ˜150 mm^3. Control, vehicle solution only; points, means; bars, SD. DTIC, (5-(3,3,-dimethyl-1-triazenyl)-imidazole-4-carboxamide, dacarbazine.
Average body weight of all groups increased slightly throughout the experiment period.

[2] = test system: metastasis of melanoma to the lungs; experiment: Melanoma lung metastasis model in mice; type: in vivo; settings: i.p. injection 5 days per week for 2 weeks (FIG. 28)
Description: Panel A: Representative photos of lungs with melanoma nodules (black dots, n=8 per group). Treatment was i.p. injection 5 days per week for 2 weeks. Panel B: Number of melanoma nodules on each lung. […] Panel C: Mouse body weight changes during the experiment. Points: means; bars: SD. Control: vehicle solution only.

B16-F1 melanoma = B16-F1 melanoma tumors in C57/BL mice; type: in vivo; settings: after 13 days of treatment, C57BL/6 mice
Method: C57BL/6 mice bearing B16-F1 melanoma allograft (n=5 per group). Each mouse received 0.5×10^6 cells by s.c. injection into the flank. 30 μL i.p. daily treatments were started when tumor size reached ˜100 mm^3. […] Control, vehicle solution only; points, means; bars, SD. DTIC, (5-(3,3,-dimethyl-1-triazenyl)-imidazole-4-carboxamide, dacarbazine.
Female C57/BL mice, age 4-6 weeks, were purchased from Harlan Laboratories (Harlan Laboratories Inc., Indianapolis, Ind.). The animal housing met the Association for Assessment and Accreditation and Laboratory Animal Care specifications. All of the procedures were conducted in accordance with guidelines of our Institutional Animal Care and Use Committee.
The cell suspension (100 μL) was injected subcutaneously in the right dorsal flank of each mouse. When tumor size reached about 100-150 mm^3, about 7 days after cell inoculation, all mice bearing tumors were divided into control and treatment groups based on tumor size (n=5 per group). Each group had similar average tumor size. Mice in control groups (negative control) were injected intraperitoneally with 50 μL vehicle solution only or DTIC at 60 mg/kg (positive control) once daily. Tumor volume was measured every 2 days with a traceable electronic digital caliper (Fisher Scientific, Inc., Pittsburgh, Pa.) and calculated using the formula a×b^2×0.5, where a and b represented the larger and smaller diameters, respectively. Tumor volume was expressed in cubic millimeters. Data were expressed as mean±SE for each group and plotted as a function of time. […] Animal activity and average body weight of each group were monitored during the entire experiment period to assess compound toxicity. At the end of treatment, all mice were euthanized by CO2 followed by cervical dislocation, and tumors were harvested for further studies.

B16-F1 melanoma cells = experiment: B16-F1 melanoma colony formation assay in soft agar; type: cell-based, mouse; settings: 14 days; tested 20, 100, 500 nM
Method: B16-F1 melanoma cells were plated at a colony-forming density (2000 cells per well on six-well plates) on top of 0.8% base agar. Cells were grown in 0.4% agar together with DMEM medium supplemented with fetal bovine serum and an antibiotic-antimycotic solution at 37° C. in an atmosphere of 95% air and 5% CO2. […] Compounds were added to the media from 1 mM DMSO stock solutions, and a corresponding dilution of DMSO was used as control. Cells were grown for 14 days. Plates were photographed, and the number of colonies was measured by Artek 880 Automated Colony Counter (Artek Systems Corporation, Farmingdale, N.Y.).

WM164 = experiment: SRB cell culture cytotoxicity assay, WM-164; type: cell-based, human; settings: 48 h
B16-F1 = experiment: SRB cell culture cytotoxicity assay, B16-F1; type: cell-based, mouse; settings: 48 h
DU145/TXR = experiment: Growth inhibition, DU145/TXR; type: cell-based; settings: RABI, Table 10A; read-out: DU145/TXR (nM), inhibitory effects
Du 145 = experiment: SRB cytotoxicity assay, Du 145; type: cell-based, human; settings: RABI, Tables 10A/10B; read-out: DU145 (nM), inhibitory effects
PPC-1 = experiment: SRB cytotoxicity assay, PPC-1; type: cell-based, human; settings: RABI, Tables 10A/10B; read-out: PPC1 (nM), inhibitory effects
LNCaP = experiment: SRB cytotoxicity assay, LNCaP; type: cell-based, human; settings: Reversed aryl benzoyl imidazole (RABI), Tables 10A/10B; read-out: LNCaP (nM), inhibitory effects
MDA-MB-435/LCC6MDR1 = experiment: SRB growth inhibition, multidrug-resistant MDA-MB-435/LCC6MDR1; type: cell-based; settings: Tables 11C, 11D; read-out: IC50 ± SEM (μm), MDA-MB-435/LCC6MDR1
MDA-MB-435 = experiment: SRB growth inhibition, MDA-MB-435 (sensitive parent melanoma line); type: cell-based, human; settings: Tables 11C, 11D; read-out: IC50 ± SEM (μm), MDA-MB-435
PC-3 = experiment: SRB cytotoxicity assay, PC-3; settings: read-out: PC3 (nM), inhibitory effects; RABI, Tables 10A/10B
A375 = experiment: SRB cell culture cytotoxicity assay, A375; type: cell-based, human; settings: Tables 11C, 11D; read-out: IC50 ± SEM (μm), A375
[3] = ICR, Sprague-Dawley, beagle, mouse, in vivo
Method: All compounds (10 mg/kg) were dissolved in DMSO/PEG300 (1/9) and administered by a single intravenously (i.v.) injection (50 μL) into the tail vein.

[4] = Metabolic stability in human liver microsomes; settings: Table 13A; mean from duplicate studies
in vivo = settings: nude, mouse, 20 mg/kg

Which IC50 (OVCAR-8) does the source give for `O=C(c1ccc(F)cc1)c1c[nH]c(-c2ccc(Cl)cc2)n1` [12fb, (2-(4-chlorophenyl)-1H-imidazol-4-yl)(4-fluorophenyl)methanone] here?
The IC50 was 47 nM.

What about the “melanoma tumor growth inhibition (TGI value)” value [1] of the same compound?
Its value is 69%.

What about the “metastasis of melanoma to the lungs” value [2] of the same compound?
The value was “inhibition”.

What about the “melanoma tumor growth inhibition (TGI value)” value (B16-F1 melanoma; 15 mg/kg) of the same compound?
Its value is 32%.

What about the “melanoma tumor growth inhibition (TGI value)” value (B16-F1 melanoma; 45 mg/kg) of the same compound?
The value was 82%.

What about the “concentration showing effective inhibition of B16-F1 colony formation” value (B16-F1 melanoma cells) of the same compound?
Its value is 100 nM.

For `COc1cc(C(=O)c2c[nH]c(-c3ccc(O)cc3)n2)cc(O)c1OC` [12kc], which IC50 (WM164) is on record?
Its IC50 is 6400 nM.

And the IC50 (B16-F1)?
The IC50 was 5600 nM.

Which IC50 (DU145/TXR) does the source give for `COc1cc(C(=O)c2nc(-c3ccc(Cl)cc3)c[nH]2)cc(OC)c1OC` [70c] here?
Its IC50 is 121 nM.

Which IC50 (Du 145) does the source give for `COc1cc(-c2c[nH]c(C(=O)c3ccccc3)n2)cc(OC)c1OC` [70x] here?
The IC50 was 1300 nM.

What about the IC50 (PPC-1) of the same compound?
Its IC50 is 408 nM.

And the IC50 (LNCaP)?
The IC50 was 195 nM.

What about the IC50 (MDA-MB-435/LCC6MDR1) of the same compound?
Its IC50 is 5770 nM.

What about the IC50 (MDA-MB-435) of the same compound?
The IC50 was 4600 nM.

And the IC50 (PC-3)?
Its IC50 is 632 nM.

For `COc1cc(Cc2nc(-c3ccccc3)c[nH]2)cc(OC)c1OC` [102a], which IC50 (A375) is on record?
The IC50 was 10200 ± 392 nM.

For `COc1cc(C(=O)c2csc(Nc3ccc4[nH]ccc4c3)n2)cc(OC)c1OC` [compound 55], which “oral bioavailability rates among three species” value [3] is on record?
The value was 24-36%.

What about the “half-life in human liver microsomes” value [4] of the same compound?
Its value is 28 min.

What about the Kp (in vivo) of the same compound?
The Kp was 3.2.

Source: patent US10022356B2, “Compounds for treatment of cancer” (UNIVERSITY OF TENNESSEE RESEARCH FOUNDATION, priority 2013, dated 2018)
